From US12077503B2, “Substituted cyclic amides and their use as herbicides” (FMC CORPORATION, priority 2015, dated 2024)

What was measured:
Type in all cases: in vivo
[1] = test system: pigweed (Amaranthus retroflexus); test: Test A postemergence
In short: (§1)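 Greenhouse, ~10 d after spray; visual injury vs untreated controls, 0 = no effect, 100 = complete control. Preemergence: directed soil spray over planted seeds. Postemergence: plants 2–10 cm, 1–2 leaf stage. Loam/sand blend. Compound in non-phytotoxic solvent with surfactant.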

[2] = test system: Galium (catchweed bedstraw, Galium aparine); test: Test A postemergence
In short: as §1

[3] = test system: barnyardgrass (Echinochloa crus-galli); test: Test A postemergence
In short: as §1

[4] = test system: wheat (Triticum aestivum); test: Test A postemergence
In short: as §1

corn (Zea mays) = test: Test A postemergence
In short: as §1

[5] = test system: ragweed (common ragweed, Ambrosia elatior); test: Test A postemergence
In short: as §1

[6] = test system: blackgrass (Alopecurus myosuroides); test: Test A postemergence
In short: as §1

Kochia (Kochia scoparia) [7] = test: Test A postemergence
In short: as §1

[8] = test system: giant foxtail (Setaria faberii); test: Test A postemergence
In short: as §1

[9] = test system: ryegrass, Italian (Italian ryegrass, Lolium multiflorum); test: Test A postemergence
In short: as §1

[10] = test system: pigweed (Amaranthus retroflexus); test: Test A preemergence
[11] = test system: barnyardgrass (Echinochloa crus-galli); test: Test A preemergence
In short: as §1

[12] = test system: ragweed (common ragweed, Ambrosia elatior); test: Test A preemergence
In short: as §1

Kochia (Kochia scoparia) [13] = test: Test A preemergence
In short: as §1

[14] = test system: giant foxtail (Setaria faberii); test: Test A preemergence
In short: as §1

[15] = test system: ryegrass, Italian (Italian ryegrass, Lolium multiflorum); test: Test A preemergence
In short: as §1

rice (Oryra sativa) = test: Test B flooded paddy test; conditions: Flood, 0 to 100 scale where 0 is no effect and 100 is complete control, 13 to 15 d
In short: (§2)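 Plants at 2-leaf stage flooded to 3 cm above soil, with compounds applied directly to paddy water and that depth maintained. Plants kept in greenhouse 13–15 d. Visual rating versus controls on a 0 (no effect) to 100 (complete control) scale.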

[16] = test system: barnyardgrass (Echinochloa crus-galli); test: Test B flooded paddy test; conditions: Flood, 0 to 100 scale where 0 is no effect and 100 is complete control, 13 to 15 d
In short: as §2

[17] = test system: ducksalad (Heteranthera limosa); test: Test B flooded paddy test; conditions: Flood, 0 to 100 scale where 0 is no effect and 100 is complete control, 13 to 15 d
In short: as §2

[18] = test system: sedge, umbrella (small-flower umbrella sedge, Cyperus difformis); test: Test B flooded paddy test; conditions: Flood, 0 to 100 scale where 0 is no effect and 100 is complete control, 13 to 15 d
In short: as §2

[19] = 125 g ai/ha, postemergence, visual rating after approx. 10 d, 0 to 100 scale (0 no effect, 100 complete control)
[20] = Postemergence, 500 g ai/ha, 0 to 100 scale where 0 is no effect and 100 is complete control
[21] = 125 g ai/ha, Preemergence, visual injury after approximately 10 d, 0 to 100 scale where 0 is no effect and 100 is complete control
[22] = Preemergence, 500 g ai/ha, visual injury approx. 10 d
[23] = 500 g ai/ha, postemergence, visual injury, 0 to 100 scale (0 no effect, 100 complete control), approx. 10 d
[24] = 500 g ai/ha, preemergence, 0 to 100 scale, 0 = no effect, 100 = complete control

SMILES	Plant response rating, Pigweed [1, 19]	Plant response rating, Galium [2, 19]	Plant response rating, Barnyardgrass [3, 19]	Plant response rating, Wheat [4, 19]	Plant response rating, Corn (corn (Zea mays); [19])	Plant response rating, Ragweed [5, 19]	Plant response rating, Blackgrass [6, 19]	Plant response rating, Kochia (Kochia (Kochia scoparia) [7]; [19])	Plant response rating, Foxtail, Giant [8, 19]	Plant response rating, Ryegrass, Italian [9, 19]	Plant response rating, Pigweed [10, 21]	Plant response rating, Barnyardgrass [11, 21]	Plant response rating, Ragweed [12, 21]	Plant response rating, Kochia (Kochia (Kochia scoparia) [13]; [21])	Plant response rating, Foxtail, Giant [14, 21]	Plant response rating, Ryegrass, Italian [15, 21]	Plant response rating, Rice (rice (Oryra sativa); 250 g ai/ha)	Plant response rating, Barnyardgrass ([16]; 250 g ai/ha)	Plant response rating, Ducksalad ([17]; 250 g ai/ha)	Plant response rating, Sedge, Umbrella ([18]; 250 g ai/ha)	further results
O=C1NCC(c2cc(F)c(F)cc2F)C1C(=O)Nc1ccc(F)cc1F (racemic) [Compound 551]	0	0	10	0	0	0	0	0	50	0	0	30	0	0	80	0	15	20	85	0	Plant response rating, Pigweed [1, 20]: 0; Plant response rating, Galium [2, 20]: 0; Plant response rating, Barnyardgrass [3, 20]: 80; Plant response rating, Wheat [4, 20]: 0; Plant response rating, Corn (corn (Zea mays); [20]): 0; Plant response rating, Ragweed [5, 20]: 0; Plant response rating, Blackgrass [6, 20]: 0; Plant response rating, Kochia (Kochia (Kochia scoparia) [7]; [20]): 0; Plant response rating, Foxtail, Giant [8, 20]: 80; Plant response rating, Ryegrass, Italian [9, 20]: 0; Pigweed plant response rating (0 to 100 scale, 0 is no effect, 100 is complete control) [10, 22]: 0; Barnyardgrass plant response rating (0 to 100 scale, 0 is no effect, 100 is complete control) [11, 22]: 90; Ragweed plant response rating (0 to 100 scale, 0 is no effect, 100 is complete control) [12, 22]: 0; Kochia plant response rating (0 to 100 scale, 0 is no effect, 100 is complete control) (Kochia (Kochia scoparia) [13]; [22]): 0; Foxtail, Giant plant response rating (0 to 100 scale, 0 is no effect, 100 is complete control) [14, 22]: 90; Ryegrass, Italian plant response rating (0 to 100 scale, 0 is no effect, 100 is complete control) [15, 22]: 0
COc1cccc(NC(=O)C2C(=O)NCC2c2cccc(C(F)(F)F)c2)c1F (racemic) [Compound 674]	0	0	30	0	0	0	0	0	30	0	0	60	0	0	70	0					Plant response rating, Pigweed [1, 23]: 0; Plant response rating, Galium [2, 23]: 0; Plant response rating, Barnyardgrass [3, 23]: 70; Plant response rating, Wheat [4, 23]: 0; Plant response rating, Corn (corn (Zea mays); [23]): 0; Plant response rating, Ragweed [5, 23]: 0; Plant response rating, Blackgrass [6, 23]: 0; Plant response rating, Kochia (Kochia (Kochia scoparia) [7]; [23]): 0; Plant response rating, Foxtail, Giant [8, 23]: 80; Plant response rating, Ryegrass, Italian [9, 23]: 0; Plant response rating, Pigweed [10, 24]: 0; Plant response rating, Barnyardgrass [11, 24]: 80; Plant response rating, Ragweed [12, 24]: 0; Plant response rating, Kochia (Kochia (Kochia scoparia) [13]; [24]): 30; Plant response rating, Foxtail, Giant [14, 24]: 90; Plant response rating, Ryegrass, Italian [15, 24]: 0; Plant response rating, Rice (rice (Oryra sativa); 500 g ai/ha): 20; Plant response rating, Barnyardgrass ([16]; 500 g ai/ha): 60; Plant response rating, Ducksalad ([17]; 500 g ai/ha): 65; Plant response rating, Sedge, Umbrella ([18]; 500 g ai/ha): 0
Cc1ccc(C2CNC(=O)C2C(=O)Nc2ccccc2F)cc1C(F)(F)F (racemic) [Compound 678]	0	0	70	0	10	0	30	0	20	0	0	90	0	0	80	0	10	40	75	0	Plant response rating, Pigweed [1, 23]: 0; Plant response rating, Galium [2, 23]: 30; Plant response rating, Barnyardgrass [3, 23]: 80; Plant response rating, Wheat [4, 23]: 20; Plant response rating, Corn (corn (Zea mays); [23]): 30; Plant response rating, Ragweed [5, 23]: 0; Plant response rating, Blackgrass [6, 23]: 60; Plant response rating, Kochia (Kochia (Kochia scoparia) [7]; [23]): 0; Plant response rating, Foxtail, Giant [8, 23]: 60; Plant response rating, Ryegrass, Italian [9, 23]: 20; Plant response rating, Pigweed [10, 24]: 0; Plant response rating, Barnyardgrass [11, 24]: 90; Plant response rating, Ragweed [12, 24]: 0; Plant response rating, Kochia (Kochia (Kochia scoparia) [13]; [24]): 30; Plant response rating, Foxtail, Giant [14, 24]: 90; Plant response rating, Ryegrass, Italian [15, 24]: 20
